Values quoted from earlier work, collected in patent US20260144779A1, “MODIFIED RELEASE PHARMACEUTICAL FORMULATIONS COMPRISING DEFERIPRONE” (CHIESI FARMACEUTICI S.P.A., priority 2022, published 2026).

Conditions: in vivo

For Cc1c(O)c(=O)ccn1C [Deferiprone, 3-hydroxy-1,2-dimethylpyridin-4-one], which Half-life is on record?
The Half-life was 2 to 3 h.
